pEC50: −log10 of the molar value.
Tested on: γ-secretase
Experiment: Screening for γ-secretase-modulating activity, Aβ 42 in SKNBE2 cells carrying APP 695-wild type
Format: cell-based
Conditions: at 3 μM
Protocol: Screening of the Compounds of the Invention for γ-Secretase-Modulating Activity
Screening was carried out using SKNBE2 cells carrying the APP 695-wild type, grown in DMEM/NUT-mix F12 (HAM) provided by Gibco (cat no. 31330-38) containing 5% Serum/Fe supplemented with 1% non-essential amino acids.
Cells were grown to near confluency.
The screening was performed using the assay as described in Citron et al (1997) Nature Medicine 3: 67.
IC50-Values of Selected Compounds of the Invention on the γ-Secretase Activity.

Point of comparison: CC(C)CC(C(=O)O)c1cc(Oc2cc(F)cc(F)c2)cc(-c2cc(C(F)(F)F)cc(C(F)(F)F)c2)c1 (centres unmarked) [Compound 36, 2-[5-(3,5-Difluoro-phenoxy)-3′,5′-bis-trifluoromethyl-biphenyl-3-yl]-4-methyl-pentanoic acid], “WTAPP SKNBE2 Aβ 42 % Inhibition at 3 μM” value 90%. Against it:
- CC(C)CC(C(=O)O)c1cc(Oc2cccc(F)c2)cc(-c2ccc(C(F)(F)F)cc2)c1 (centres unmarked) [Compound 26, 2-[5-(3-Fluoro-phenoxy)-4′-trifluoromethyl-biphenyl-3-yl]-4-methyl-pentanoic acid] — lower, 58%
- COc1ccc(Oc2cc(-c3ccc(C(F)(F)F)cc3)cc(C(CC(C)C)C(=O)O)c2)cc1 (centres unmarked) [Compound 28, 2-[5-(4-Methoxy-phenoxy)-4′-trifluoromethyl-biphenyl-3-yl]-4-methyl-pentanoic acid] — lower, −3%
- CC(C)CC(C(=O)O)c1cc(Oc2ccc(Cl)cc2)cc(-c2ccc(C(F)(F)F)cc2)c1 (centres unmarked) [Compound 29, 2-[5-(4-Chloro-phenoxy)-4′-trifluoromethyl-biphenyl-3-yl]-4-methyl-pentanoic acid] — lower, 62%
- CC(C)CC(C(=O)O)c1cc(Oc2cccc(C(F)(F)F)c2)cc(-c2cc(F)cc(C(F)(F)F)c2)c1 (centres unmarked) [Compound 31, 2-[3′-Fluoro-5′-trifluoromethyl-5-(3-trifluoromethyl-phenoxy)-biphenyl-3-yl]-4-methyl-pentanoic acid] — lower, 84%
- CC(C)CC(C(=O)O)c1cc(Oc2cc(F)cc(C(F)(F)F)c2)cc(-c2cc(F)cc(C(F)(F)F)c2)c1 (centres unmarked) [Compound 32, 2-[3′-Fluoro-5-(3-fluoro-5-trifluoromethyl-phenoxy)-5′-trifluoromethyl-biphenyl-3-yl]-4-methyl-pentanoic acid] — lower, 87%
- CC(C)CC(C(=O)O)c1cc(Oc2cc(F)cc(F)c2)cc(-c2cc(F)cc(C(F)(F)F)c2)c1 (centres unmarked) [Compound 33, 2-[5-(3,5-Difluoro-phenoxy)-3′-fluoro-5′-trifluoromethyl-biphenyl-3-yl]-4-methyl-pentanoic acid] — lower, 59%
- CC(C)CC(C(=O)O)c1cc(Oc2cccc(C(F)(F)F)c2)cc(-c2cc(C(F)(F)F)cc(C(F)(F)F)c2)c1 (centres unmarked) [Compound 35, 2-[3′,5′-Bis-trifluoromethyl-5-(3-trifluoromethyl-phenoxy)-biphenyl-3-yl]-4-methyl-pentanoic acid] — the same, 90%
- CC(C)CC(C(=O)O)c1cc(Nc2cc(C(F)(F)F)ccc2C(F)(F)F)cc(-c2ccc(Cl)c(C(F)(F)F)c2)c1 (centres unmarked) [Compound 39, 2-[4′-Chloro-5-(2,5-bis-trifluoromethyl-phenylamino)-3′-trifluoromethyl-biphenyl-3-yl]-4-methyl-pentanoic acid] — higher, 95%
- CC(C)CC(C(=O)O)c1cc(Nc2ccc(F)cc2C(F)(F)F)cc(-c2cc(F)cc(C(F)(F)F)c2)c1 (centres unmarked) [Compound 41, 2-[5′-Fluoro-5-(4-fluoro-2-trifluoromethyl-phenylamino)-3′-trifluoromethyl-biphenyl-3-yl]-4-methyl-pentanoic acid] — lower, 67%
- CC(C)CC(C(=O)O)c1cc(Nc2cc(C(F)(F)F)cc(C(F)(F)F)c2)cc(-c2cc(F)cc(C(F)(F)F)c2)c1 (centres unmarked) [Compound 42, 2-[5′-Fluoro-5-(3,5-bis-trifluoromethyl-phenylamino)-3′-trifluoromethyl-biphenyl-3-yl]-4-methyl-pentanoic acid] — lower, 75%
- CC(C)CC(C(=O)O)c1cc(Nc2cc(C(F)(F)F)cc(C(F)(F)F)c2)cc(-c2cc(C(F)(F)F)cc(C(F)(F)F)c2)c1 (centres unmarked) [Compound 43, 2-[5-(3,5-Bis-trifluoromethyl-phenylamino)-3′,5′-bis-trifluoromethyl-biphenyl-3-yl]-4-methyl-pentanoic acid] — lower, 89%
- CC(C)CC(C(=O)O)c1cc(Nc2ccc(F)cc2C(F)(F)F)cc(-c2cc(C(F)(F)F)cc(C(F)(F)F)c2)c1 (centres unmarked) [Compound 45, 2-[5-(4-Fluoro-2-trifluoromethyl-phenylamino)-3′,5′-bis-trifluoromethyl-biphenyl-3-yl]-4-methyl-pentanoic acid] — lower, 85%

Same assay, conditions: read-out: WTAPP SKNBE2 Aβ 42 EC50

Point of comparison: CC(C)CC(C(=O)O)c1cc(Oc2cc(F)cc(C(F)(F)F)c2)cc(-c2ccc(C(F)(F)F)cc2)c1 (centres unmarked) [Compound 30, 2-[5-(3-Fluoro-5-trifluoromethyl-phenoxy)-4′-trifluoromethyl-biphenyl-3-yl]-4-methyl-pentanoic acid], pEC50 6.48. Against it:
- CC(C)CC(C(=O)O)c1cc(Oc2cc(F)cc(C(F)(F)F)c2)cc(-c2ccc(Cl)c(C(F)(F)F)c2)c1 (centres unmarked) [Compound 21, 4-Methyl-2-[4′-chloro-3′-trifluoromethyl-5-(3-fluoro-5-trifluoromethylphenoxy)-biphenyl-3-yl]-pentanoic acid] — 0.37 log units higher, 6.85
- CC(C)CC(C(=O)O)c1cc(Oc2cc(F)cc(F)c2)cc(-c2ccc(C(F)(F)F)cc2)c1 (centres unmarked) [Compound 27, 2-[5-(3,5-Difluoro-phenoxy)-4′-trifluoromethyl-biphenyl-3-yl]-4-methyl-pentanoicacid] — 0.37 log units lower, 6.11
- CC(C)CC(C(=O)O)c1cc(Oc2cc(F)cc(C(F)(F)F)c2)cc(-c2cc(C(F)(F)F)cc(C(F)(F)F)c2)c1 (centres unmarked) [Compound 34, 2-[5-(3-Fluoro-5-trifluoromethyl-phenoxy)-3′,5′-bis-trifluoromethyl-biphenyl-3-yl]-4-methyl-pentanoic acid] — within 0.2 log units, 6.59
- CC(C)CC(C(=O)O)c1cc(Nc2cc(C(F)(F)F)cc(C(F)(F)F)c2)cc(-c2ccc(Cl)c(C(F)(F)F)c2)c1 (centres unmarked) [Compound 37, 2-[5-(3,5-Bis-trifluoromethyl-phenylamino)-4′-chloro-3′-trifluoromethyl-biphenyl-3-yl]-4-methyl-pentanoic acid] — within 0.2 log units, 6.34
- CC(C)CC(C(=O)O)c1cc(Nc2cc(F)cc(C(F)(F)F)c2)cc(-c2ccc(Cl)c(C(F)(F)F)c2)c1 (centres unmarked) [Compound 38, 2-[4′-Chloro-5-(3-fluoro-5-trifluoromethyl-phenylamino)-3′-trifluoromethyl-biphenyl-3-yl]-4-methyl-pentanoic acid] — 0.48 log units higher, 6.96
- CC(C)CC(C(=O)O)c1cc(Nc2cc(C(F)(F)F)ccc2C(F)(F)F)cc(-c2cc(F)cc(C(F)(F)F)c2)c1 (centres unmarked) [Compound 40, 2-[5′-Fluoro-5-(2,5-bis-trifluoromethyl-phenylamino)-3′-trifluoromethyl-biphenyl-3-yl]-4-methyl-pentanoic acid] — the same, 6.48
- CC(C)CC(C(=O)O)c1cc(Nc2cc(C(F)(F)F)ccc2C(F)(F)F)cc(-c2cc(C(F)(F)F)cc(C(F)(F)F)c2)c1 (centres unmarked) [Compound 44, 2-[5-(2,5-Bis-trifluoromethyl-phenylamino)-3′,5′-bis-trifluoromethyl-biphenyl-3-yl]4-methyl-pentanoic acid] — within 0.2 log units, 6.62

Tested on: Aβ 42
Experiment: In vivo Aβ 42 lowering, mouse
Conditions: oral dose 30 mg/kg at 4 hr time point
Excerpt: To determine whether acute administration of an Aβ42 lowering agent would reduce Aβ42 levels in vivo, non-transgenic rodents, e.g. mice or rats can be used. Alternatively, two to three month old Tg2576 mice expressing APP695 containing the “Swedish” variant can be used or a transgenic mouse model developed by Dr. Fred Van Leuven (K. U. Leuven, Belgium) and co-workers, with neuron-specific expression of a clinical mutant of the human amyloid precursor protein [V717I] (Moechars et al., 1999 J. Biol. Chem. 274, 6483). […] Animals of this age have high levels of Aβ in the brain but no detectable Aβ deposition. Mice treated with the Aβ42 lowering agent will be examined and compared to those untreated or treated with vehicle and brain levels of soluble Aβ42 and total Aβ would be quantitated by standard techniques, for example, using ELISA. Treatment periods may vary from hours to days and will be adjusted based on the results of the Aβ42 lowering once a time course of onset of effect can be established.
A typical protocol for measuring Aβ42 lowering in vivo is shown but it is only one of many variations that could be used to optimize the levels of detectable Aβ. For example, aliquots of compounds can be dissolved in DMSO (volume equal to 1/10th of the final formulation volume), vortexed and further diluted (1:10) with a 10% (w/v) hydroxypropyl β cyclodextrin (HBC, Aldrich, Ref No 33,260-7) solution in PBS, where after they are sonicated for 20 seconds.
Aβ42 lowering agents may be administered as a single oral dose given three to four hours before sacrifice and analysis or alternatively could be given over a course of days and the animals sacrificed three to four hours after the final dose is given.
Blood is collected at sacrifice. The blood collection is performed via a heart puncture during anesthesia with a mixture of Ketalar (Ketamin), Rompun (Xylazin 2%) and Atropin (2:1:1) and collected in EDTA treated collection tubes. Blood is centrifuged at 4000 g for 5 minutes at 4° C. and the plasma recovered for analysis. […]

Point of comparison: CC(C)CC(C(=O)O)c1cc(Oc2cc(F)cc(C(F)(F)F)c2)cc(-c2ccc(C(F)(F)F)cc2)c1 (centres unmarked) [Compound 30, 2-[5-(3-Fluoro-5-trifluoromethyl-phenoxy)-4′-trifluoromethyl-biphenyl-3-yl]-4-methyl-pentanoic acid], “Mouse Efficacy % Lowering Aβ 42” value 43%. Against it:
- CC(C)CC(C(=O)O)c1cc(Oc2cc(F)cc(C(F)(F)F)c2)cc(-c2ccc(Cl)c(C(F)(F)F)c2)c1 (centres unmarked) [Compound 21, 4-Methyl-2-[4′-chloro-3′-trifluoromethyl-5-(3-fluoro-5-trifluoromethylphenoxy)-biphenyl-3-yl]-pentanoic acid] — lower, 25%

From patent publication US7557244B2, “Substituted biphenyl carboxylic acids and derivatives thereof” (Ortho-McNeil Pharmaceutical, Inc., priority 2006, dated 2009)
